pIC50: −log10 of the molar value. Where two headings read alike, the source gives them in different places. Square brackets hold non-standard residues; d marks the D form. Peptide text beside a SMILES is read from it. Arg(Me) = CNC(=N)NCCC[C@H](N)C(=O)O; 4Pal = N[C@@H](Cc1ccncc1)C(=O)O; azaGly = NNC(=O)O
Columns and labels:
[1] = Stability of compound in blood (mouse serum, half life); settings: female, Balb/c
Description: (§1) Blood was drawn from Balb/c mice (female) of 8 weeks old, settled at 37° C. for 30 minutes and centrifuged at 13000 rpm for 10 minutes to give the serum as the supernatant. The serum thus obtained was frozen-stored at −80° C.
(§2) The stability test was performed by addition of 5 nmol of Compound (5 μL of aqueous solution) to 45 μL of serum and then settlement of the mixture at 37° C. The settlement was made at 3 points of time, including 2, 10 and 30 minutes. The sample after the settlement was boiled for 3 minutes and cooled on an ice bath. After 200 μL of acetonitrile/water (3/1) was added to the sample, the mixture was ultrasonicated for 5 minutes and then centrifuged at 5000 rpm for 1 minute. After 150 μL of the supernatant was diluted with 250 μL of distilled water, insoluble matters were removed by filtration through a filter having a pore size of 0.45 μm and 200 μL of the filtrate was applied on HPLC (220 nm) to determine the peak area of Compound. A ratio of the peak area to the area when Compound was treated for 0 minute under the same conditions was calculated as a mean value in 4 respective runs to determine the residual ratio. Next, by taking the calculated residual ratio on the ordinate and the time on the abscissa, a graph was prepared and approximated by an exponential function.
(§3) The preparative HPLC used was the LC-VP series manufactured by Shimadzu Corporation and Wakosil-II 5C18 HG (4.6 mm×100 mm) manufactured by Wako Pure Chemical Industries, Ltd. was used as the column. Eluant A (0.1% TFA-containing water) and eluant B (0.1% TFA-containing acetonitrile) were used as eluants. Analysis was performed by linear density gradient elution (25 minutes) at a flow rate of 1.0 ml/min. using eluants A/B: 100/0-0/50.

hOT7T175 [2] = target: T1, hOT7T175 (Homo sapiens, UniProt Q969F8, L364H); assay: Intracellular Ca ion level-increasing activity using FLIPR in hOT7T175/CHO; format: cell-based; set-up: expressed in transfected cells; host or cells: CHO/dhfr- cells, obtained from ATCC; settings: relative, Metastin (1-54) = 1
[3] = tested on: hOT7T175-expressed CHO cells; format: cell-based; settings: for IC50: hOT7T175-expressed CHO cells, 3 days culture, Cell Counting Kit-8, read-out: IC50 (M), cell growth inhibition activity
Description: Assay for Cell Growth Inhibition Activity in hOT7T175-Expressed Cho Cells hOT7T175-Expressed CHO cells (hereinafter hOT7T175) were cultured in DMEM supplemented with 10% dialyzed FBS (hereinafter 10% dFBS/DMEM), which was used for the following assay. The hOT7T175 was suspended in 10% dFBS/DMEM at 10,000 cells/ml. The cells were plated on a 96 well plate at 100 μL each/well (1,000 cells/well), followed by culturing overnight at 37° C. in a 5% CO2 incubator. On the following day, the medium was removed and 90 μL of 10% dFBS/DMEM supplemented with 0.5% BSA (hereinafter, 0.5% BSA/10% dFBS/DMEM) was added. […] After 10 μL of Cell Counting Kit-8 solution (Dojin Chemical Laboratory) was added to each well, incubation was performed at 37° C. in a 5% CO2 incubator for 4 hours and absorbance was measured at 450 nm.

in vitro = settings: female, Balb/c, mouse, serum
Description: as §1, §2, §3

hOT7T175 [4] = target: T1, hOT7T175; assay: hOT7T175 receptor binding activity: binding inhibition of Cy-5-labeled metastin (40-54) on hOT7T175-expressed CHO cells; set-up: expressed in transfected cells; host or cells: CHO cells

T1 sequence (Q969F8 whole entry L364H): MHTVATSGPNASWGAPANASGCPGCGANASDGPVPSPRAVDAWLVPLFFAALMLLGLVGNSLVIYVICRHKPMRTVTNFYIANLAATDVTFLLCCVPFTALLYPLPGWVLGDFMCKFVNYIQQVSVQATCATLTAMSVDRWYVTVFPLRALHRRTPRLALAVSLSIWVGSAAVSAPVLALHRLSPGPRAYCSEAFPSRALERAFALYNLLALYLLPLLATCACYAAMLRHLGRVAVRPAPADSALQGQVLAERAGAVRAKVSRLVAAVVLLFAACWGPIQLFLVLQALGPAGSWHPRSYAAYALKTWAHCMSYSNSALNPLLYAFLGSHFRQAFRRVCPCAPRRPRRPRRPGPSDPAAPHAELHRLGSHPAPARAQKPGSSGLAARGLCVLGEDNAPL

| Compound | half-life at 100 µM [1] | Specific Activity (intracellular Ca ion level-increasing activity) (hOT7T175 [2]) | pIC50 [3] | IC50 [3] | half-life at 100 µM (in vitro) | pIC50 (hOT7T175 [4]) |
| --- | --- | --- | --- | --- | --- | --- |
| CNC(=N)NCCC[C@H](NC(=O)[C@H](CC(C)C)NC(=O)CC(=O)N[C@H](Cc1ccccc1)NC(=O)[C@H](CO)NC(=O)[C@H](CC(N)=O)NC(=O)[C@H](Cc1c[nH]c2ccccc12)NC(=O)[C@H](CC(N)=O)NC(=O)[C@H](N)Cc1ccc(O)cc1)C(=O)N[C@@H](Cc1ccccc1)C(N)=O [Compound No. 319, D-Tyr-Asn-Trp-Asn-Ser-PheΨ(NHCO)Gly-Leu-Arg(Me)-Phe-NH2] | 33 min | 3 |  |  |  |  |
| CC[C@H](C)[C@H](NC(=O)[C@H](CCC(N)=O)NC(=O)[C@H](CCCNC(=N)N)NC(=O)[C@H](CO)NC(=O)[C@H](Cc1c[nH]cn1)NC(=O)[C@@H]1CCCN1C(=O)[C@H](C)NC(=O)[C@H](CO)NC(=O)[C@H](CC(C)C)NC(=O)CNC(=O)[C@@H]1CCCN1C(=O)[C@H](CCC(N)=O)NC(=O)[C@H](CCC(N)=O)NC(=O)[C@H](CCCNC(=N)N)NC(=O)[C@H](CO)NC(=O)CNC(=O)[C@H](CO)NC(=O)[C@H](CO)NC(=O)[C@H](CCC(=O)O)NC(=O)[C@@H]1CCCN1C(=O)[C@@H]1CCCN1C(=O)[C@@H]1CCCN1C(=O)[C@H](CO)NC(=O)[C@H](CC(C)C)NC(=O)[C@H](CO)NC(=O)[C@@H](NC(=O)CN)[C@@H](C)O)C(=O)N1CCC[C@H]1C(=O)N[C@@H](C)C(=O)N1CCC[C@H]1C(=O)N[C@@H](CCC(N)=O)C(=O)NCC(=O)N[C@@H](C)C(=O)N[C@H](C(=O)N[C@@H](CC(C)C)C(=O)N[C@H](C(=O)N[C@@H](CCC(N)=O)C(=O)N[C@@H](CCCNC(=N)N)C(=O)N[C@@H](CCC(=O)O)C(=O)N[C@@H](CCCCN)C(=O)N[C@@H](CC(=O)O)C(=O)N[C@@H](CC(C)C)C(=O)N1CCC[C@H]1C(=O)N[C@@H](CC(N)=O)C(=O)N[C@@H](Cc1ccc(O)cc1)C(=O)N[C@@H](CC(N)=O)C(=O)N[C@@H](Cc1c[nH]c2ccccc12)C(=O)N[C@@H](CC(N)=O)C(=O)N[C@@H](CO)C(=O)N[C@@H](Cc1ccccc1)C(=O)NCC(=O)N[C@@H](CC(C)C)C(=O)N[C@@H](CCCNC(=N)N)C(=O)N[C@@H](Cc1ccccc1)C(N)=O)C(C)C)C(C)C [1-54] |  |  | 6.67 |  |  |  |
| CC(C)C[C@H](NC(=O)CNC(=O)[C@H](Cc1ccccc1)NC(=O)[C@H](CO)NC(=O)[C@H](CC(N)=O)NC(=O)[C@H](Cc1c[nH]c2ccccc12)NC(=O)[C@H](CC(N)=O)NC(=O)[C@H](N)Cc1ccc(O)cc1)C(=O)N[C@@H](CCCNC(=N)N)C(=O)N[C@@H](Cc1ccccc1)C(N)=O [Compound No. 42] | 0.7 min | 30 |  |  |  |  |
| CNC(=N)NCCC[C@H](NC(=O)[C@H](CC(C)C)NC(=O)NNC(=O)[C@H](Cc1ccccc1)NC(=O)[C@H](CO)NC(=O)[C@H](CC(N)=O)NC(=O)[C@H](Cc1ccncc1)NC(=O)[C@@H](CC(N)=O)NC(=O)[C@H](N)Cc1ccc(O)cc1)C(=O)N[C@@H](Cc1ccccc1)C(N)=O [Compound No. 303, D-Tyr-D-Asn-Pya(4)-Asn-Ser-Phe-AzaGly-Leu-Arg(Me)-Phe-NH2] (H-[dY][dN][4Pal]NSF[azaGly]L[Arg(Me)]F-NH2) |  | 5 |  | 4.12e-08 M |  |  |
| CC(C)C[C@H](NC(=O)CNC(=O)[C@H](Cc1ccccc1)NC(=O)[C@H](CO)NC(=O)[C@H](CC(N)=O)NC(=O)[C@H](Cc1c[nH]c2ccccc12)NC(=O)[C@H](CC(N)=O)NC(=O)[C@@H](N)Cc1ccc(O)cc1)C(=O)N[C@@H](CCCNC(=N)N)C(=O)N[C@@H](Cc1ccccc1)C(N)=O [Compound No. 3, reference compound] | 0.6 min | 10 |  |  |  |  |
| CC(C)C[C@H](NC(=O)CNC(=O)[C@H](Cc1ccccc1)NC(=O)[C@H](CO)NC(=O)[C@H](CC(N)=O)NC(=O)[C@H](Cc1c[nH]c2ccccc12)NC(=O)[C@H](CC(N)=O)NC(=O)[C@@H](N)Cc1ccc(O)cc1)C(=O)N[C@@H](CCCNC(=N)N)C(=O)N[C@@H](Cc1ccccc1)C(N)=O [45-54] |  |  |  | 8.51e-06 M |  |  |
| CNC(=N)NCCC[C@H](NC(=O)[C@H](CC(C)C)NC(=O)CNC(=O)[C@H](Cc1ccccc1)NC(=O)[C@H](CO)NC(=O)[C@H](CC(N)=O)NC(=O)[C@H](Cc1c[nH]c2ccccc12)NC(=O)[C@H](CC(N)=O)NC(=O)[C@H](N)Cc1ccc(O)cc1)C(=O)N[C@@H](Cc1ccccc1)C(N)=O [Compound No. 141] |  | 10 | 7.06 |  | 8.7 min |  |
| CNC(=N)NCCC[C@H](NC(=O)[C@H](CC(C)C)NC(=O)NNC(=O)[C@H](Cc1ccccc1)NC(=O)[C@H](CO)NC(=O)[C@H](CC(N)=O)NC(=O)[C@H](Cc1ccncc1)NC(=O)[C@H](CC(N)=O)NC(=O)[C@H](N)Cc1ccc(O)cc1)C(=O)N[C@@H](Cc1ccccc1)C(N)=O [Compound No. 286, D-Tyr-Asn-Pya(4)-Asn-Ser-Phe-AzaGly-Leu-Arg(Me)-Phe-NH2] (H-[dY]N[4Pal]NSF[azaGly]L[Arg(Me)]F-NH2) |  | 2 |  | 1.83e-08 M |  |  |
| CNC(=N)NCCC[C@H](NC(=O)[C@H](CC(C)C)NC(=O)NNC(=O)[C@H](Cc1ccccc1)NC(=O)[C@H](CO)NC(=O)[C@H](CC(N)=O)NC(=O)[C@H](Cc1c[nH]c2ccccc12)NC(=O)[C@H](CC(N)=O)NC(=O)[C@H](N)Cc1ccc(O)cc1)C(=O)N[C@@H](Cc1ccccc1)C(N)=O [Compound No. 232, D-Tyr-Asn-Trp-Asn-Ser-Phe-AzaGly-Leu-Arg(Me)-Phe-NH2] |  | 3 | 8.01 |  | 28.2 min | 7.31 |

— US8361968B2 (Takeda Pharmaceutical Company Limited, priority 2002, dated 2013)
